Converted amounts (≈) assume the structure as drawn.

Assay [1] deals with Mycobacterium tuberculosis. The experiment in a line: Antibacterial activity against Mycobacterium tuberculosis H37Rv by resazurin dye-based assay. The format is functional. (In general: Resazurin is reduced to fluorescent resorufin, in cell work by metabolically active cells.)
Assay [2] has as its system Mycobacterium tuberculosis. The assay is described as follows: Antibacterial activity against Mycobacterium tuberculosis CNCTC My 331/88. The format is functional.
Assay [3] deals with Mycobacterium kansasii. The assay is described as follows: Antibacterial activity against Mycobacterium kansasii isolate 6509/96. The format is functional.
In another assay the test system is Mycobacterium avium. The assay is described as follows: Antibacterial activity against Mycobacterium avium CNCTC My 330/88. The format is functional.
Assay [4] has as its system Mycobacterium kansasii. The assay is described as follows: Antibacterial activity against Mycobacterium kansasii CNCTC My 235/80. The format is functional.
The target in assay [5] is T1, Cysteine protease falcipain-3 (Plasmodium falciparum, UniProt Q9NAW4).
T1 sequence (Q9NAW4 whole entry): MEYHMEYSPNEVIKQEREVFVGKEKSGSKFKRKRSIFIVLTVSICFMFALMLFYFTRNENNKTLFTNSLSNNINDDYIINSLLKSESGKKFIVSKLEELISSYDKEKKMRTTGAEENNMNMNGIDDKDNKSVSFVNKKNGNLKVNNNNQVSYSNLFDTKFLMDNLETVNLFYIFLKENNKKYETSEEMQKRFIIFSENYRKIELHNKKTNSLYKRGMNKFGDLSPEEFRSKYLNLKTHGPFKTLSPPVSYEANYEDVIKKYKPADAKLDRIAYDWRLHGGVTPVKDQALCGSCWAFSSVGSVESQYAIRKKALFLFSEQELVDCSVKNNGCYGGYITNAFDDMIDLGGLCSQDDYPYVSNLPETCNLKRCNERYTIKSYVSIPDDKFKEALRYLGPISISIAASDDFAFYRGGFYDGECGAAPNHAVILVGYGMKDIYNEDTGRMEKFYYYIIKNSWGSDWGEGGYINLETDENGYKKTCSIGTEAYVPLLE
The experiment in a line: Inhibition of Plasmodium falciparum falcipain-3 preincubated for 30 mins followed by Z-Leu-Arg-AMC substrate addition and measured up to 15 mins by spectrofluorometric analysis.

In the next assay the target is T2, Falcipain 2 (Plasmodium falciparum, UniProt Q9N6S8).
T2 sequence (Q9N6S8 whole entry): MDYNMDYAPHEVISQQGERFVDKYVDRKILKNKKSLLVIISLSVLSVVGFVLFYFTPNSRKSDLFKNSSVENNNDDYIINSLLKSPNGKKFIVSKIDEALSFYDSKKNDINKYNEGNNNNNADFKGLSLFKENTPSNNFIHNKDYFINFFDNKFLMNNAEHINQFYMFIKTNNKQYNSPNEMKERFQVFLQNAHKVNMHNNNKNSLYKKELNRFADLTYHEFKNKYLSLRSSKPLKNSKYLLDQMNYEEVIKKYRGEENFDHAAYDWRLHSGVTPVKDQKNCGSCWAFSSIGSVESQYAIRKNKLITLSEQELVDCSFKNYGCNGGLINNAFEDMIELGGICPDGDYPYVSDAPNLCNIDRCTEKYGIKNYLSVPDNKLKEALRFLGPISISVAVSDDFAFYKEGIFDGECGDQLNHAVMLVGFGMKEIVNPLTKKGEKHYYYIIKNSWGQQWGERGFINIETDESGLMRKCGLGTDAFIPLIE
The experiment in a line: Inhibition of Plasmodium falciparum falcipain-2 preincubated for 30 mins followed by Z-Leu-Arg-AMC substrate addition and measured up to 15 mins by spectrofluorometric analysis.

The subject of a further assay is Plasmodium falciparum. The assay is described as follows: Antimalarial activity against Plasmodium falciparum K2 infected in human erythrocytes assessed as parasitemia after 48 hrs by YOYO-1 staining-based flow cytometric analysis. The format is functional, organism-based. The following applies: K2, 48 h. A general note: A flow cytometer gives signals particle by particle.

The test system of another assay is CHO-K1. The experiment in a line: Cytotoxicity against CHOK1 cells after 24 hrs by MTT assay. The format is cell-based. The following applies: Cricetulus griseus, CHO-K1, 24 h. In general terms: Tetrazolium dyes change colour on reduction, which living cells bring about.
Assay [6] has as its system Mycobacterium tuberculosis. The experiment in a line: Antibacterial activity against Mycobacterium tuberculosis H37Rv by MABA. The format is functional.

As usually defined, the MIC is the lowest concentration found to suppress growth. A higher MIC goes with weaker potency. Take `O=C(Cn1nnnc1-c1ccccc1)NN1C(=O)C(Cl)C1c1ccc(Cl)cc1` (configuration not stated): in assay [1], the minimum inhibitory concentration (MIC) is more than 6.25 µg/mL.
On to `C[C@]12CC[C@@H]3c4ccc(OCCCCCCCSc5nnnn5-c5ccccc5)cc4CC[C@H]3[C@@H]1CCC2=O`, for which the minimal inhibitory concentration (MIC) (in assay [2]; with Mycobacterium kansasii [3]; against Mycobacterium avium; against Mycobacterium kansasii [4]) was not below 500 µg/mL throughout.
The term IC50 denotes the concentration needed to halve the response being measured. Regarding `CC(C(=O)N1c2ccccc2CCc2ccccc21)n1nnc(-c2ccc(N3CCOCC3)cc2)n1` (configuration not stated), the IC50 in assay [5] is 6.67 to 43.9 µM; at Falcipain 2, 6.67 to 43.9 µM; in the assay with Plasmodium falciparum, more than 10 µM.
In turn, `COc1cc(-c2nnnn2S(=O)(=O)c2ccccc2)ccc1OCC(O)(Cn1cncn1)c1ccc(F)cc1F` (configuration not stated) displayed an IC50 in the assay on CHO-K1 of more than 150 µg/mL. The molecule also registered an MIC in assay [6] of 3.12 µg/mL (≈ 5.48 µM).
As to `CCCCOc1ccc(-c2nnn(CC(=O)Nc3c(C)ccc4ccccc34)n2)cc1`, the IC50 is 6.67 to 43.9 µM in assay [5], 6.67 to 43.9 µM at Falcipain 2 and more than 10 µM in the assay on Plasmodium falciparum.
As for `COc1ccc(NC(=O)Cn2nnc(-c3ccccc3NC(=O)c3cc(OC)cc(OC)c3)n2)cc1`, the IC50 in [5] was 6.67 to 43.9 µM; on Falcipain 2, 6.67 to 43.9 µM; in the assay on Plasmodium falciparum, more than 10 µM.
`O=C(Cn1nnnc1-c1ccccc1)NN1C(=O)C(Cl)C1c1ccc([N+](=O)[O-])cc1` (configuration not stated) displayed a minimal inhibitory concentration (MIC) in assay [1] of more than 6.25 µg/mL.
As to `COc1cc(-c2nnnn2S(=O)(=O)c2ccc([N+](=O)[O-])cc2)ccc1OCC(O)(Cn1cncn1)c1ccc(Cl)cc1Cl` (configuration not stated), the IC50 in the assay with CHO-K1 is more than 150 µg/mL. The molecule further yielded a minimum inhibitory concentration (MIC) in [6] of 1.56 to 12.5 µg/mL (≈ 2.41 to 19.3 µM).
Take `COc1ccc(NC(=O)Cn2nnc(-c3ccccc3NS(=O)(=O)c3ccc(NC(C)=O)cc3)n2)cc1`: the 50% inhibitory concentration (IC50) is 6.67 to 43.9 µM in assay [5], 6.67 to 43.9 µM against Falcipain 2 and more than 10 µM in the assay on Plasmodium falciparum.
Consider `Sc1nnnn1-c1ccccc1`, for which the MIC (in [2]; in the assay with Mycobacterium kansasii [3]; with Mycobacterium avium; against Mycobacterium kansasii [4]) was 250 to 500 µg/mL (≈ 1400 to 2810 µM) each time.
`O=C(Cn1nnnc1-c1ccccc1)NN1C(=O)C(Cl)C1c1ccccc1` (configuration not stated) registered an MIC in assay [1] of more than 6.25 µg/mL.
As for `O=C(Cn1nnc(-c2ccccc2)n1)NNC(=O)c1ccco1`, the IC50 is 6.67 to 43.9 µM in assay [5], 6.67 to 43.9 µM on Falcipain 2 and more than 10 µM in the assay with Plasmodium falciparum.
Take `Cc1ccc(-n2nnnc2SCCCCCCCOc2ccc3c(c2)CC[C@@H]2[C@@H]3CC[C@]3(C)C(=O)CC[C@@H]23)cc1`: the minimal inhibitory concentration (MIC) (in [2]; with Mycobacterium kansasii [3]; in the assay with Mycobacterium avium; against Mycobacterium kansasii [4]) was not below 500 µg/mL throughout.
In the assay on CHO-K1, `COc1ccc(S(=O)(=O)n2nnnc2-c2ccc(OCC(O)(Cn3cncn3)c3ccc(Cl)cc3Cl)c(OC)c2)cc1` (configuration not stated) displayed an IC50 of more than 150 µg/mL. For the same molecule, the MIC in [6] was 1.56 to 12.5 µg/mL (≈ 2.47 to 19.8 µM).
The like results for `COc1cc(-c2nnnn2S(=O)(=O)c2ccc(F)cc2)ccc1OCC(O)(Cn1cncn1)c1ccc(F)cc1F` (configuration not stated) were, in that order, more than 150 µg/mL and 6.25 µg/mL (≈ 10.6 µM).
On the same counts, the results for `COc1cc(-c2nnnn2S(=O)(=O)c2ccc(Br)s2)ccc1OCC(O)(Cn1cncn1)c1ccc(Cl)cc1Cl` (configuration not stated) are more than 150 µg/mL and 1.56 µg/mL (≈ 2.27 µM).
Regarding `COc1cc(-c2nnnn2S(=O)(=O)c2ccc(OC(F)(F)F)cc2)ccc1OCC(O)(Cn1cncn1)c1ccc(Cl)cc1Cl` (configuration not stated), in the assay with CHO-K1, the half-maximal inhibitory concentration (IC50) was more than 150 µg/mL. For the same molecule, the MIC in [6] fell in the range of 1.56 to 12.5 µg/mL (≈ 2.27 to 18.2 µM).
For `COc1cc(-c2nnnn2S(=O)(=O)c2ccc(C(C)(C)C)cc2)ccc1OCC(O)(Cn1cncn1)c1ccc(F)cc1F` (configuration not stated), the IC50 with CHO-K1 was more than 150 µg/mL. This molecule showed a minimum inhibitory concentration (MIC) in assay [6] of 1.56 µg/mL (≈ 2.49 µM).
With `COc1cc(-c2nnnn2S(=O)(=O)c2ccc(Br)cc2)ccc1OCC(O)(Cn1cncn1)c1ccc(F)cc1F` (configuration not stated), the IC50 with CHO-K1 is more than 150 µg/mL. In [6], this molecule gave a minimum inhibitory concentration (MIC) of 3.12 µg/mL (≈ 4.81 µM).
Take `Cc1cc(NC(=O)Cn2nnc(-c3ccc(N)cc3)n2)no1`: the 50% inhibitory concentration (IC50) in assay [5] was 6.67 to 43.9 µM; on Falcipain 2 it was 6.67 to 43.9 µM; in the assay on Plasmodium falciparum, more than 10 µM.
Take `COc1ccc(C(=O)Cn2nnc(-c3ccccc3NC(=O)c3ccncc3)n2)cc1`: the half-maximal inhibitory concentration (IC50) in assay [5] was 6.67 to 43.9 µM; on Falcipain 2, 6.67 to 43.9 µM; in the assay with Plasmodium falciparum it was more than 10 µM.
